According to the NIST ThermoML archive (doi:10.1016/j.jct.2015.08.014):
Numbers after ± are expanded uncertainties.

Test: xn = mol fraction of the nth substance listed
Settings: 313.15 K, 100 kPa, Liquid, Alternating current cell with electrodes

CCCC[N+]1(C)CCCC1.N#CN=C=[N-] [1-butyl-1-methylpyrrolidinium dicyanamide] + O=C1CCCO1
Settings	electrical conductivity [S/m]
Frequency=0.002 MHz, x1 = 1	2 ± 0.02
Frequency=0.0025 MHz, x1 = 0.0463	1.79 ± 0.032
Frequency=0.0025 MHz, x1 = 0.0987	2.72 ± 0.034
Frequency=0.0025 MHz, x1 = 0.1449	3.13 ± 0.033
Frequency=0.0025 MHz, x1 = 0.1859	3.36 ± 0.034
Frequency=0.0025 MHz, x1 = 0.2493	3.36 ± 0.034
Frequency=0.0025 MHz, x1 = 0.3029	3.315 ± 0.033
Frequency=0.0025 MHz, x1 = 0.3845	3.16 ± 0.032
Frequency=0.0025 MHz, x1 = 0.4985	2.87 ± 0.029
Frequency=0.0025 MHz, x1 = 0.6954	2.425 ± 0.024
Frequency=0.0025 MHz, x1 = 0.9013	2.09 ± 0.021
Frequency=0.0025 MHz, x1 = 1	2 ± 0.02
Frequency=0.003 MHz, x1 = 0.0463	1.79 ± 0.032
Frequency=0.003 MHz, x1 = 0.0987	2.72 ± 0.034
Frequency=0.003 MHz, x1 = 0.1449	3.13 ± 0.033
Frequency=0.003 MHz, x1 = 0.1859	3.36 ± 0.034
Frequency=0.003 MHz, x1 = 0.2493	3.36 ± 0.034
Frequency=0.003 MHz, x1 = 0.3029	3.316 ± 0.033
Frequency=0.003 MHz, x1 = 0.3845	3.16 ± 0.032
Frequency=0.003 MHz, x1 = 0.4985	2.87 ± 0.029
Frequency=0.003 MHz, x1 = 0.6954	2.425 ± 0.024
Frequency=0.003 MHz, x1 = 0.9013	2.09 ± 0.021
Frequency=0.003 MHz, x1 = 1	2 ± 0.02
Frequency=0.00347222 MHz, x1 = 0.0463	1.79 ± 0.032
Frequency=0.00347222 MHz, x1 = 0.0987	2.72 ± 0.034
Frequency=0.00347222 MHz, x1 = 0.1449	3.13 ± 0.033
Frequency=0.00347222 MHz, x1 = 0.1859	3.37 ± 0.034
Frequency=0.00347222 MHz, x1 = 0.2493	3.36 ± 0.034
Frequency=0.00347222 MHz, x1 = 0.3029	3.317 ± 0.033
Frequency=0.00347222 MHz, x1 = 0.3845	3.16 ± 0.032
Frequency=0.00347222 MHz, x1 = 0.4985	2.87 ± 0.029
Frequency=0.00347222 MHz, x1 = 0.6954	2.425 ± 0.024
Frequency=0.00347222 MHz, x1 = 0.9013	2.09 ± 0.021
Frequency=0.00347222 MHz, x1 = 1	2 ± 0.02
Frequency=0.004 MHz, x1 = 0.0463	1.79 ± 0.032
Frequency=0.004 MHz, x1 = 0.0987	2.73 ± 0.034
Frequency=0.004 MHz, x1 = 0.1449	3.13 ± 0.033
Frequency=0.004 MHz, x1 = 0.1859	3.37 ± 0.034
Frequency=0.004 MHz, x1 = 0.2493	3.36 ± 0.034
Frequency=0.004 MHz, x1 = 0.3029	3.318 ± 0.033
Frequency=0.004 MHz, x1 = 0.3845	3.16 ± 0.032
Frequency=0.004 MHz, x1 = 0.4985	2.88 ± 0.029
Frequency=0.004 MHz, x1 = 0.6954	2.426 ± 0.024
Frequency=0.004 MHz, x1 = 0.9013	2.09 ± 0.021
Frequency=0.004 MHz, x1 = 1	2 ± 0.02
Frequency=0.00446429 MHz, x1 = 0.0463	1.79 ± 0.032
Frequency=0.00446429 MHz, x1 = 0.0987	2.73 ± 0.034
Frequency=0.00446429 MHz, x1 = 0.1449	3.13 ± 0.033
Frequency=0.00446429 MHz, x1 = 0.1859	3.37 ± 0.034
Frequency=0.00446429 MHz, x1 = 0.2493	3.36 ± 0.034
Frequency=0.00446429 MHz, x1 = 0.3029	3.318 ± 0.033
Frequency=0.00446429 MHz, x1 = 0.3845	3.16 ± 0.032
Frequency=0.00446429 MHz, x1 = 0.4985	2.88 ± 0.029
Frequency=0.00446429 MHz, x1 = 0.6954	2.426 ± 0.024
Frequency=0.00446429 MHz, x1 = 0.9013	2.09 ± 0.021
Frequency=0.00446429 MHz, x1 = 1	2 ± 0.02
Frequency=0.005 MHz, x1 = 0.0463	1.79 ± 0.032
Frequency=0.005 MHz, x1 = 0.0987	2.73 ± 0.034
Frequency=0.005 MHz, x1 = 0.1449	3.13 ± 0.033
Frequency=0.005 MHz, x1 = 0.1859	3.37 ± 0.034
Frequency=0.005 MHz, x1 = 0.2493	3.36 ± 0.034
Frequency=0.005 MHz, x1 = 0.3029	3.319 ± 0.033
Frequency=0.005 MHz, x1 = 0.3845	3.16 ± 0.032
Frequency=0.005 MHz, x1 = 0.4985	2.88 ± 0.029
Frequency=0.005 MHz, x1 = 0.6954	2.426 ± 0.024
Frequency=0.005 MHz, x1 = 0.9013	2.09 ± 0.021
Frequency=0.005 MHz, x1 = 1	2 ± 0.02
Frequency=0.005454 MHz, x1 = 0.0463	1.79 ± 0.032
Frequency=0.005454 MHz, x1 = 0.0987	2.73 ± 0.034
Frequency=0.005454 MHz, x1 = 0.1449	3.13 ± 0.033
Frequency=0.005454 MHz, x1 = 0.1859	3.37 ± 0.034
Frequency=0.005454 MHz, x1 = 0.2493	3.36 ± 0.034
Frequency=0.005454 MHz, x1 = 0.3029	3.319 ± 0.033
Frequency=0.005454 MHz, x1 = 0.3845	3.16 ± 0.032
Frequency=0.005454 MHz, x1 = 0.4985	2.88 ± 0.029
Frequency=0.005454 MHz, x1 = 0.6954	2.426 ± 0.024
Frequency=0.005454 MHz, x1 = 0.9013	2.09 ± 0.021
Frequency=0.005454 MHz, x1 = 1	2 ± 0.02
Frequency=0.006 MHz, x1 = 0.0463	1.79 ± 0.032
Frequency=0.006 MHz, x1 = 0.0987	2.73 ± 0.034
Frequency=0.006 MHz, x1 = 0.1449	3.13 ± 0.033
Frequency=0.006 MHz, x1 = 0.1859	3.37 ± 0.034
Frequency=0.006 MHz, x1 = 0.2493	3.36 ± 0.034
Frequency=0.006 MHz, x1 = 0.3029	3.32 ± 0.033
Frequency=0.006 MHz, x1 = 0.3845	3.16 ± 0.032
Frequency=0.006 MHz, x1 = 0.4985	2.88 ± 0.029
Frequency=0.006 MHz, x1 = 0.6954	2.43 ± 0.025
Frequency=0.006 MHz, x1 = 0.9013	2.09 ± 0.021
Frequency=0.006 MHz, x1 = 1	2 ± 0.02
Frequency=0.00652174 MHz, x1 = 0.0463	1.79 ± 0.032
Frequency=0.00652174 MHz, x1 = 0.0987	2.73 ± 0.034
Frequency=0.00652174 MHz, x1 = 0.1449	3.13 ± 0.033
Frequency=0.00652174 MHz, x1 = 0.1859	3.37 ± 0.034
Frequency=0.00652174 MHz, x1 = 0.2493	3.36 ± 0.034
Frequency=0.00652174 MHz, x1 = 0.3029	3.32 ± 0.033
Frequency=0.00652174 MHz, x1 = 0.3845	3.16 ± 0.032
Frequency=0.00652174 MHz, x1 = 0.4985	2.88 ± 0.029
Frequency=0.00652174 MHz, x1 = 0.6954	2.43 ± 0.025
Frequency=0.00652174 MHz, x1 = 0.9013	2.09 ± 0.021
Frequency=0.00652174 MHz, x1 = 1	2 ± 0.02
Frequency=0.00694444 MHz, x1 = 0.0463	1.79 ± 0.032
Frequency=0.00694444 MHz, x1 = 0.0987	2.73 ± 0.034
Frequency=0.00694444 MHz, x1 = 0.1449	3.13 ± 0.033
Frequency=0.00694444 MHz, x1 = 0.1859	3.37 ± 0.034
Frequency=0.00694444 MHz, x1 = 0.2493	3.36 ± 0.034
Frequency=0.00694444 MHz, x1 = 0.3029	3.32 ± 0.033
Frequency=0.00694444 MHz, x1 = 0.3845	3.16 ± 0.032
